Molecules are shown by their SMILES.

Test [1] has as its target T1, TREK-2 (expressed in HEK293) (Mus musculus, UniProt Q8BUW1).
T1 construct: gene Kcnk10
T1 sequence (Q8BUW1 1-535): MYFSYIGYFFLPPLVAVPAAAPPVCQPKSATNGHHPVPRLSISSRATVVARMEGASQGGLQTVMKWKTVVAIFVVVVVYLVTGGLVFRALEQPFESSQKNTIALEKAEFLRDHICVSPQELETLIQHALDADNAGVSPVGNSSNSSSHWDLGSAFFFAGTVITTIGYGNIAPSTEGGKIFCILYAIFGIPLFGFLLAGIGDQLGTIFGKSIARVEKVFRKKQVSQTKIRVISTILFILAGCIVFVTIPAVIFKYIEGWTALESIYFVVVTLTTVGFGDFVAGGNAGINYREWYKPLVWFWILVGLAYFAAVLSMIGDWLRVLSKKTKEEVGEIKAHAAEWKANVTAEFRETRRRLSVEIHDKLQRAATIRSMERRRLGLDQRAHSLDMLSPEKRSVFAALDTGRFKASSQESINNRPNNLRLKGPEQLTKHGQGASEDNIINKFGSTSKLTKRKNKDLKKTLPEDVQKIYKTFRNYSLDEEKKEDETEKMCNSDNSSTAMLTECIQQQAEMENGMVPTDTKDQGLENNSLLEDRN
Briefly: patch clamp of transfected HEK293 cells, inhibition of riluzole-evoked current.

The target of test [2] is T2, TREK-2 (native riluzole-activated current IRIL in mouse SCG neurons) (Mus musculus, UniProt Q8BUW1).
T2 construct: gene Kcnk10; TREK-1 and TRAAK are also expressed at lower level
Briefly: perforated-patch whole-cell voltage clamp, inhibition of riluzole-activated current. The conditions noted are these: riluzole 300 µM activator, TEA 15 mM, TTX 0.5 µM, CsCl 1 mM, -30 mV, room temperature, Hill coefficient 0.78. Format: cell-based.

With `O=C1c2ccccc2C(Cc2ccncc2)(Cc2ccncc2)c2ccccc21` [XE991], in test [1] (HEK293, read-out: % inhibition at 1 μM), the inhibition at 1 µM came to 73.8 ± 1.93%.
`O=C1N(c2ccccc2)c2ccccc2C1(Cc1ccncc1)Cc1ccncc1` [linopirdine] gave a concentration for half-maximal inhibition (IC50) in test [2] of 310 ± 60 nM. Also, the inhibition at 0.3 µM in test [1] (HEK293, read-out: % inhibition at 300 nM) stood at 65.5 ± 5.93%.

(Values after publication PMC7461115, “Contribution of KCNQ and TREK Channels to the Resting Membrane Potential in Sympathetic Neurons at Physiological Temperature” (International Journal of Molecular Sciences, 2020).)
